From article PMC8536627, “Hydrolytic stability of anticancer drugs and one metabolite in the aquatic environment” (Environmental Science and Pollution Research International, 2021)
“Also recorded” adds a separate entry of the source. Like-named read-outs stand apart in the source and are kept apart here.

Legend:
[1] = HPLC water with 4 % DMSO, ref Negreira et al. ([2013a]), cited from earlier work
[2] = physchem; format: physicochemical
Procedure: Moreover, the complete preliminary test was repeated twice. […] Each measuring point was performed in two parallel replicates.
where t, time; ct, c0, concentration of the analyte at a time (0 means the beginning of the test); k, rate constant.
Based on this, the t1/2 was determined by using the equation: 2 t1/2=ln2/k
where t1/2, half-life of the analyte; k, rate constant.
The degradation was monitored for 30 days or until 90 % of a compound was degraded. Based on the obtained results (Fig. 4) the constant rates (k) and half-lives (t1/2) have been calculated (Table 1).
After determining the hydrolysis rate constants it was possible to calculate activation energy (Ea) of this process at each pH, either from plotting ln k from T^−1 (Figure 5) when there were three k values obtained for each compound and pH (CP at pH 4, 7, and 9 as well as IF at pH 4) or from the following equation (for IF at pH 7 and 9, where only two k values were obtained) (Table 1): 4 E=Rlnk2−lnk1/1/T1¯−1/T2
where R, gas constant (8.314 J/mol × K); k1, k2, rate constants for different temperatures; T, absolute temperature (K).

[3] = physchem; format: physicochemical; conditions: for half-life: buffer, read-out: t½, extrapolated half-life (converted)
Procedure: By obtaining at least two rate constants for two different temperatures, it is possible to calculate the rate constants and, in consequence, half-lives at other temperatures, according to the Arrhenius equation: 3 k=A×e^−E/R×Torlnk=−E/R×T+lnA
Therefore, these equations were applied to extrapolate the obtained results and calculate the rate constants and half-lives of unstable anticancer drugs in more environmentally relevant temperatures (4, 10, or 15 °C), which are typical to natural waters.
Additionally, these observations confirm that CP is much more vulnerable for hydrolysis than IF, which is interesting how two isomers (like CP and IF) may differently undergo hydrolysis process. […] If the conclusions were drawn only based on the results from the preliminary experiments (incubation at 50 °C for 5 days), it would be assumed that both compounds, especially CP, are very unstable. […] Moreover, using Equation 3, it was possible to extrapolate the results to determine the rate constants and half-lives at the temperatures 4, 10, and 15 °C, which are ordinary for environmental waters (Table 2).

[4] = physchem; conditions: 5 days; for Degradation level in the preliminary test: dark
Procedure: The incubation was performed in the dark, in order to avoid the influence of the photolysis on degradation of the analytes. The water used for the preparation of buffers was autoclaved, all glassware was clean, flushed with methanol, and dried in high temperature. Samples were closed in glass tubes with a sealed cap. The air from above the solution was removed by a nitrogen stream just before capping. In the preliminary test, solutions of single analytes were prepared in each tested pH: 4, 7, and 9, which is required by the OECD guidelines. There was also a blank sample prepared for each pH. Samples in the preliminary test were prepared in two parallel replicates. Moreover, the complete preliminary test was repeated twice. The preliminary test was performed at 50 °C for 5 days. […] In the case of the extended tests, 7 measuring points were provided during the time of the test. Each measuring point was performed in two parallel replicates. […] The test was conducted for 30 days or to 90 % elimination of a compound. Obtained results were used to determine the hydrolysis rate constant (k) using equation: 1 lnCt/C0=kt
The HPLC-UV/Vis technique was applied to determine the level of hydrolytic degradation of the analytes. In the preliminary test, the control and blank samples were analyzed at the beginning and the end of the test. […] In the extended test, the samples collected in the time intervals were analyzed, and peak areas were compared to those obtained at the beginning of the test. This was used to determine the kinetic of this hydrolysis process by using the Equation 1. In general, each analyte was analyzed by a simple HPLC method with UV/Vis detection. Gemini C18 (Phenomenex, USA), 5 μm, 110 Å, 150 mm × 4.6 mm chromatographic column was applied for each method and three different mobile phases were used (water or 0.1 % HCOOH) mixed with the acetonitrile. The conditions applied during the LC-MS analysis with an ion trap detector for the qualitative analysis of the samples collected after the extended tests at 20 and 70 °C are presented in the Table S2.

[5] = pH 7 and 8.1, 5 days, calculated; ref Booker et al. ([2014]); cited from earlier work
[6] = 20 °C, ref Gilard et al. ([1994]), cited from earlier work
[7] = room temperature, ref Franquet-Griell et al. [2017], cited from earlier work
[8] = dark conditions, 20 °C, ref Buerge et al. ([2006]); cited from earlier work

Structure (SMILES): O=P1(N(CCCl)CCCl)NCCCO1 (stereo not shown) [CP, cyclophosphamide]
- Stability in 24 h test ([1]; 4 °C): stable
- Long-term stability at 4 °C ([1]; 4 °C): stable for 1 month
- Stability in 24 h test ([1]; 15 °C): still stable
- Stability in 24 h test ([1]; 25 °C): remained stable
- Degradation of initial amount in 30 days ([2]; 20 °C, 30 days, pH not specified (pH 4, 7, 9 tested)): around 20%
- half-life ([2]; 20 °C, all pH, read-out: Half-life (converted)): ~80 days
- k, hydrolysis rate constant ([2]; 20 °C, pH 4): 0.00035 h⁻¹
- k, hydrolysis rate constant ([2]; 20 °C, pH 7): 0.00038 h⁻¹
- k, hydrolysis rate constant ([2]; 20 °C, pH 9): 0.00037 h⁻¹
- k, hydrolysis rate constant ([2]; 50 °C, pH 4): 0.025 h⁻¹
- k, hydrolysis rate constant ([2]; 50 °C, pH 7): 0.024 h⁻¹
- k, hydrolysis rate constant ([2]; 50 °C, pH 9): 0.024 h⁻¹
- half-life ([2]; 50 °C, range over three pH values, read-out: t½, half-life (converted)): 1.15 to 1.23 days
- k, hydrolysis rate constant ([2]; 70 °C, pH 4): 0.27 h⁻¹
- k, hydrolysis rate constant ([2]; 70 °C, pH 7): 0.28 h⁻¹
- k, hydrolysis rate constant ([2]; 70 °C, pH 9): 0.27 h⁻¹
- half-life ([2]; buffer, pH 4, 20 °C, pH 4, read-out: t½, half-life (converted)): 81.8 days
- half-life ([2]; buffer, pH 4, 50 °C, pH 4, read-out: t½, half-life (converted)): 1.15 days
- half-life ([2]; buffer, pH 4, 70 °C, pH 4, read-out: t½, half-life (converted)): 0.108 days
- half-life ([2]; buffer, pH 4, 70 °C, range over pH 4, 7, 9, read-out: t½, half-life (converted)): 0.104 to 0.108 days
- half-life ([2]; buffer, pH 7, 20 °C, pH 7, read-out: t½, half-life (converted)): 77.8 days
- half-life ([2]; buffer, pH 7, 50 °C, pH 7, read-out: t½, half-life (converted)): 1.23 days
- half-life ([2]; buffer, pH 7, 70 °C, pH 7, read-out: t½, half-life (converted)): 0.104 days
- half-life ([2]; buffer, pH 9, 20 °C, pH 9, read-out: t½, half-life (converted)): 78.9 days
- half-life ([2]; buffer, pH 9, 50 °C, pH 9, read-out: t½, half-life (converted)): 1.2 days
- half-life ([2]; buffer, pH 9, 70 °C, pH 9, read-out: t½, half-life (converted)): 0.104 days
- Ea, activation energy of hydrolysis ([2]; pH 4): 26.58 kcal/mol
- Ea, activation energy of hydrolysis ([2]; pH 7): 26.43 kcal/mol
- Ea, activation energy of hydrolysis ([2]; pH 9): 26.41 kcal/mol
- Ea, activation energy of hydrolysis ([2]; range over pH 4, 7, 9): 26.41 to 26.58 kcal/mol
- k, extrapolated rate constant ([3]; 4 °C, pH 4): 5.1e-05 h⁻¹
- k, extrapolated rate constant ([3]; 4 °C, pH 7): 5.3e-05 h⁻¹
- k, extrapolated rate constant ([3]; 4 °C, pH 9): 5.3e-05 h⁻¹
- k, extrapolated rate constant ([3]; 10 °C, pH 4): 7.1e-05 h⁻¹
- k, extrapolated rate constant ([3]; 10 °C, pH 7): 7.4e-05 h⁻¹
- k, extrapolated rate constant ([3]; 10 °C, pH 9): 7.3e-05 h⁻¹
- k, extrapolated rate constant ([3]; 15 °C, pH 4): 0.000161 h⁻¹
- k, extrapolated rate constant ([3]; 15 °C, pH 7): 0.000166 h⁻¹
- k, extrapolated rate constant ([3]; 15 °C, pH 9): 0.000166 h⁻¹
- half-life ([3]; pH 4, 4 °C, pH 4): 568 days
- half-life ([3]; pH 4, 10 °C, pH 4): 406 days
- half-life ([3]; pH 4, 15 °C, pH 4): 179 days
- half-life ([3]; pH 7, 4 °C, pH 7): 549 days
- half-life ([3]; pH 7, 10 °C, pH 7): 393 days
- half-life ([3]; pH 7, 15 °C, pH 7): 174 days
- half-life ([3]; pH 9, 4 °C, pH 9): 550 days
- half-life ([3]; pH 9, 10 °C, pH 9): 394 days
- half-life ([3]; pH 9, 15 °C, pH 9): 174 days
- Hydrolytic stability in the preliminary test ([4]; pH 4, 7 and 9, 50 °C): unstable; also recorded: susceptible to hydrolysis
- Degradation level in the preliminary test ([4]; pH 4, 50 °C): completely eliminated
- Degradation level in the preliminary test ([4]; pH 7, 50 °C): 91.6%
- Degradation level in the preliminary test ([4]; pH 9, 50 °C): completely eliminated
- Stability assessed with SPARC from molecular structure [5]: stable
- Initial concentration present after 7 days ([6]; pH 3.4–8.6, 7 days): over 95%
- Maximum degradation after 17 days ([6]; pH 3.4–8.6, 17 days): ≤ 20%
- Hydrolytic stability in milli-Q water ([7]; milli-Q water, natural pH): stable
- Stability during a 48-h test in pure water ([7]; pure water, 48 h): stable
- Half-life in lake water [8]: around 80 days
